According to article PMC6736837, “^18F-labelled triazolyl-linked argininamides targeting the neuropeptide Y Y1R for PET imaging of mammary carcinoma” (Scientific Reports, 2019):
“Also recorded” adds a separate entry of the source.

What was measured:
Y1R = molecular target: Y1R; parameters: method as in PMID 28337321; details: displacement of [^3H]UR-MK114, SK-N-MC neuroblastoma cells; cited from earlier work
[1] = Biodistribution in healthy mice; format: in vivo, mouse; details: at 30 and 90 min p.i.
Experimental: Biodistribution studies were conducted using female NMRI outbred mice (HsdWin:NMRI) purchased from Envigo (Horst, The Netherlands). Mice were kept in groups of four to five animals in individually ventilated cages in a twelve hours dark/light cycle with unlimited access to water and standard chow. At the age of eight to nine weeks six animals per radiotracer were injected with 2–4 MBq of the respective radiotracer under isoflurane anesthesia. Mice were sacrificed by cervical dislocation 30 or 90 min p.i. of the radiotracer. Blood as well as the organs/tissues lung, liver, kidneys, heart, spleen, brain, muscle, intestines, gall bladder and bones were harvested and analysed in the γ-counter. Samples were weighed and radioactivity in different tissues was calculated as percentage of the total injected dose per gram tissue (%ID/g).

MCF-7-Y1 tumour slices = test: In-vitro autoradiography on MCF-7-Y1 tumour xenograft slices; format: binding, human; details: blocking with 1 µM and 10 µM BIBP3226
Experimental: MCF-7-Y1 tumour bearing mice were sacrificed by cervical dislocation under deep isoflurane anesthesia and tumours were excised and subsequently frozen in a hexane/dry ice bath (−70 °C). MCF-7-Y1 tumour slices (14 µm) were prepared on a cryostat microtome HM 500 O (Microm, Walldorf) and thaw-mounted on Histobond® adhesive glass slides (Marienfeld, Lauda-Königshofen).
For autoradiography studies slides were thawed and pre-incubated for 15 min in incubation buffer (50 mM TRIS HCl, pH 7.4, containing 120 mM NaCl, 5 mM MgCl2,) at room temperature. Thereafter, 800 µL of incubation buffer, containing 0.1 MBq of the respective radiotracer were pipetted on the slide and incubated at room temperature for 60 min. For displacement studies BIBP3226 (1 µM or 10 µM) was added to the incubation buffer before pipetting on the slides. Afterwards slides were washed by placing in ice cold incubation buffer (3 × 2 min) followed by short dipping in ice cold distilled water. Slides were carefully dried in a stream of warm air and finally placed on an autoradiography film (Fuji Imaging Plate BAS-IP SR 2025 E, Fujifilm, Düsseldorf) overnight prior to readout (25 µm resolution) on the autoradiograph (HD-CR-35 Bio, Raytest, Straubenhardt) and analysis with the software AIDA (Raytest). Additional sections were stained with hematoxylin and eosin (H&E) for comparison with the autoradiography images.

[2] = Radiotracer stability in human serum by radio-HPLC; format: in vitro ADME; details: 37 °C
Experimental: The stability of ^18F-labelled compounds was determined in human serum. An aliquot of the radiotracer (5–10 MBq) was added to 200 µL human serum and incubated at 37 °C. Aliquots of 15 µL were taken after 5, 10, 15, 30, 45, 60, 120 and 180 min and quenched in 100 µL of 10% aqueous TFA. The samples were centrifuged (20000 × g, 2 min), and the supernatants were analysed by radio-HPLC (Chromolith RP-18e, 100 × 4.6 mm, 4 mL/min, 0–1 min 25% CH3CN (0.1% TFA) in water (0.1% TFA), 1–6 min 25–60%, 6–7 min 60–100%, 7–8 min 100%).

[3] = Octanol-water distribution coefficient logD7.4, shake flask method; format: physicochemical; details: 1-octanol/PBS, pH 7.4, PBS/1-octanol, read-out: logD7.4 experimental
Experimental: The lipophilicity of the radioligands was determined by the distribution coefficient logD7.4. The respective radioligand (10 µL, about 25 kBq) was added to a mixture of PBS (500 µL) and 1-octanol (500 µL) and the emulsion was vortexed for 1 min. After centrifugation 3 × 100 µL were taken of each layer and analysed by a γ-counter. The partition coefficient was calculated as logD7.4=log(cpmoctanol/cpmPBS) . Data were expressed as mean values ± SD from three experiments.

[4] = Binding to human plasma proteins by gel filtration; format: in vitro ADME; details: 37 °C, read-out: Free fraction in plasma
Experimental: The binding of ^18F-labelled compounds to plasma proteins was determined using gel filtration columns(illustra™ MicroSpin™ G-50 Columns, GE Healthcare Life Sciences, Freiburg). An aliquot of the radiotracer (approx. 100 kBq) was added to 200 µL of saline, and 100 µL of human plasma, respectively. Both samples were incubated at 37 °C for 10 min. MicroSpin™ columns were prepared according to the user instruction. Then 25 µL of the incubated radiotracer were given onto the columns and the devices were centrifuged (2000 × g, 2 min). Eluate and solid phase were analysed in the γ-counter (Wallac Wizard). The percentage of unbound radioligand was calculated as %free=cpmsolidphase/cpmsolidphase+cpmeluate . The sample in saline was used as control.

MCF-7-Y1 tumours = test: Small animal PET in MCF-7-Y1 xenografted nude mice; format: in vivo, mouse; details: 45–60 min p.i., blocking by co-injection of BIBP3226 1 mg/kg
Experimental: For the NPY Y1R xenograft model, female NMRI nude mice (HsdCpb:NMRI-Foxn1^nu) were purchased from Envigo (Horst, The Netherlands) at the age of three weeks. Mice were kept in groups of four to five animals in individually ventilated cages in a twelve hours dark/light cycle with unlimited access to water and standard chow. At the age of nine to ten weeks one 17β-estradiol pellet per animal (0.72 mg per pellet, 3 mm diameter) with a 60-day release time (Innovative Research of America, Sarasota, FL, USA) was subcutaneously implanted on the back under isoflurane anesthesia. After three days, approximately 10^6 MCF-7-Y1 tumour cells (in 50 µL PBS) were mixed with Matrigel (50 µL, BD Biosciences, Heidelberg) and then injected subcutaneously at the back. Tumour diameters and weight of the animals were recorded five times a week. Imaging studies were performed four weeks after inoculation of the cells.
Small animal PET scans were performed on an Inveon™ microPET scanner (Siemens Healthcare, Erlangen) under isoflurane anesthesia (3%). Tumour bearing mice (26–35 g, n = 2–3 for each radioligand) were intravenously injected into the tail vein with the respective radiotracer (1.5–4.2 MBq in about 100 µL of saline) under isoflurane anesthesia (3–4%). Static images were acquired for 15 min starting 45 min p.i. of the radiotracer. For displacement studies, the same mice were co-injected with the radiotracer ([^18F]12 and [^18F]13 only) and BIBP3226 (1 mg/kg). Images were corrected for decay and attenuation and MAP (iterative maximum a posteriori) images were reconstructed using the built-in software of the PET scanner. Evaluation of the MAP images was conducted using the software PMOD (version 3.6, PMOD Technologies LLC, Zürich). Regions of interests (ROIs) were drawn and radioactivity concentration within these regions was obtained from the mean values and calculated as percentage of the total injected dose per gram tissue (% ID/g).

[5] = Radioactive metabolites of Y1R radioligands in mouse blood; format: in vivo
Experimental: Nude mice were anesthetised with isoflurane and injected with the respective radiotracer (3–25 MBq) into the tail vein. After 5 min, animals were sacrificed by cervical dislocation and approx. 100 µL blood were collected from the abdomen and transferred into Li-heparinised Microvettes® (100 LH, Sarstedt). The same volume of aqueous urea (0.8 g/mL) was added and the Microvette® was centrifuged (2000 × g, 5 min). The supernatant was transferred to a 1.5 mL reaction vial, mixed with the same volume of 10% aqueous TFA and centrifuged (20000 × g, 5 min). This step was repeated once. A sample of the resulting supernatant (100 µL) was analysed by radio-HPLC using two methods (Chromolith RP-18e, 100 × 4.6 mm, 4 mL/min, 0–1 min 25% CH3CN (0.1%TFA) in water (0.1%TFA), 1–6 min 25–60%, 6–7 min 60–100%, 7–8 min 100%; Kromasil 100 C8 5 µm, 250 × 4.6 mm, 1.5 mL/min, 1–25 min 20–53.3% CH3CN (0.1% TFA) in water (0.1% TFA), 25–27 min 53.3–80%, 27–28 min 80–100%, 28–32 min 100%).

hY5R = molecular target: T1, hY5R (Homo sapiens, UniProt Q15761); details: read-out: Kd of the radioligand (Y5R); cited from earlier work
T1 construct: expressed in transfected cells; host or cells: HEC-1b cells (HEC-1b hY5R)
T1 sequence (Q15761 1-445): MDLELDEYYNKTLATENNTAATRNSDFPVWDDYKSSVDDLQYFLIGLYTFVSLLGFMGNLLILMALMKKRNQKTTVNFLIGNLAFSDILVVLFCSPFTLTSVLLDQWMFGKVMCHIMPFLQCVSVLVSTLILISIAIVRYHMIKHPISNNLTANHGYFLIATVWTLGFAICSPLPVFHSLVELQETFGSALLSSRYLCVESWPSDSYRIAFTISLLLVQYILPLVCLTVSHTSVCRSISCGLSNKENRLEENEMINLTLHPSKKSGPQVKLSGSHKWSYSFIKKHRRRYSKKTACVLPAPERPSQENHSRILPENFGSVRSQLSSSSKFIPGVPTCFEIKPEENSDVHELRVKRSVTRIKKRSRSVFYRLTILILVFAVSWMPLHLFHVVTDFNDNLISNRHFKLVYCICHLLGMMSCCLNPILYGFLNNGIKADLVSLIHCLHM

Compound: NC(N)=NCCC[C@@H](NC(=O)C(c1ccccc1)c1ccccc1)C(=O)NCc1ccc(O)cc1 [BIBP3226]
- Ki (Y1R): 1.3 nM

Compound: N/C(=N/C(=O)NCc1cn(CCOCC[18F])nn1)NCCC[C@@H](NC(=O)C(c1ccccc1)c1ccccc1)C(=O)NCc1ccc(O)cc1 [[^18F]12, (2R)‐5‐{[(1Z)‐Amino({[({1‐[2‐(2‐[^18F]fluoroethoxy)ethyl]‐1H‐1,2,3‐triazol‐4‐yl}methyl)carbamoyl]-imino})methyl]amino}‐2‐(2,2‐diphenylacetamido)‐N‐[(4‐hydroxyphenyl)methyl]pentanamide]
- kidney uptake [1]: about three times higher
- specific binding to MCF-7-Y1 tumour slices (autoradiography) (MCF-7-Y1 tumour slices): marked specific binding; also recorded: highest specific binding to Y1R-positive cells and to tumour slices
- Stability over 3 h in human serum [2]: >99%
- logD [3]: 1.74 ± 0.07
- fraction unbound at 10 min [4]: 0.38
- tumour visualisation / specific tumour accumulation in PET (MCF-7-Y1 tumours): displaceable and thus specific Y1R-mediated tumour acculuation in vivo; also recorded: enhanced and specific tumour uptake; also recorded: highest specific binding to the Y1R-positive tumour in vivo
- radiometabolites in the blood ([5]; mouse): > 90%
- stability in the blood in vivo (in words) ([5]; mouse blood samples taken early after radiotracer injection): underwent rapid degradation in the blood
- intact radioligand in blood samples ([5]; mouse, 5 min p.i.): 10%

Compound: [^3H]propionyl-pNPY: tritiated radioligand used for competition binding at hY2R and hY5R
- Kd (hY5R): 4.8 nM
